Measured values published in PMC9133036 (Nature Communications, 2022).
Read-outs that look alike come from different tables or passages of the source.

What was measured:
Assay type in all cases: cell-based
OX2R F346A = target: T1, OX2R F346A (Homo sapiens, UniProt O43614, F346A); assay: β-arrestin PathHunter assay, OX2R F346A; conditions: β-arrestin recruitment
T1 construct: expressed in transfected cells; host or cells: CHO-K1 stably expressing EA β-arrestin2
Experimental: (§1) β-Arrestin recruitment activity was measured by using the PathHunter system (DiscoveRX) according to the manufacturer’s instruction. Receptor constructs used were the full-length wild-type (or mutant) human OX2R sequences cloned into pCMV-ProLink (DiscoveRX). CHO-K1 cells stably expressing EA β-arrestin2 (DiscoveRX) were plated on 384 well white plates (Thermo Fisher) at 4000 cells/well in HamF12 (Wako Pure Chemical Industries) supplemented with 10% fetal bovine serum (Corning) and penicillin-streptomycin (Wako Pure Chemical Industries) and incubated overnight at 37 °C under 5% CO2. Cells were transfected with plasmids encoding wild type or each mutant ProLink-tagged human OX2R using FuGENE HD (Promega). […] Detection reagent was added and incubated for 1 h at room temperature. Luminescent signal was detected using an EnVision plate reader (PerkinElmer). β-arrestin assays on different constructs were performed in two or three independent experiments (each done in quadruplicate). Dose response curves (shown in Supplementary Fig. 8) were fitted to the three-parameter model ‘log(agonist) vs response’ in GraphPad Prism to determine pEC50 values.

OX2R Y317A = target: T2, OX2R Y317A (Homo sapiens, UniProt O43614, Y317A); assay: β-arrestin PathHunter assay, OX2R Y317A; conditions: for EC50: β-arrestin recruitment
T2 construct: expressed in transfected cells; host or cells: CHO-K1 stably expressing EA β-arrestin2
T2 sequence (O43614 1-444 Y317A): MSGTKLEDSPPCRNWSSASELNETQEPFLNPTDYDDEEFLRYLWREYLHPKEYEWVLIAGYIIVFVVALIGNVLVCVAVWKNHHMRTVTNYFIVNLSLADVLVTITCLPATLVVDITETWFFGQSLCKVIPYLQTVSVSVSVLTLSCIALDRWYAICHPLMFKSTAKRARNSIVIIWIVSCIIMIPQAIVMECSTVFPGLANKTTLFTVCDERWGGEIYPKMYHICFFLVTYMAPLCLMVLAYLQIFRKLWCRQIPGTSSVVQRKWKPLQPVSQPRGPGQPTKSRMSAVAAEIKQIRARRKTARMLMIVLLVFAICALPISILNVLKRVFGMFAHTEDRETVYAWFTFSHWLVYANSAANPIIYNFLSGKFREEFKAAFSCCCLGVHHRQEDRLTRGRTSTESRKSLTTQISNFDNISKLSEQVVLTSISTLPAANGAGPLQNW
Experimental: as §1

OX2R R328A = target: T3, OX2R R328A (Homo sapiens, UniProt O43614, R328A); assay: β-arrestin PathHunter assay, OX2R R328A; conditions: β-arrestin recruitment
T3 construct: expressed in transfected cells; host or cells: CHO-K1 stably expressing EA β-arrestin2
T3 sequence (O43614 whole entry R328A): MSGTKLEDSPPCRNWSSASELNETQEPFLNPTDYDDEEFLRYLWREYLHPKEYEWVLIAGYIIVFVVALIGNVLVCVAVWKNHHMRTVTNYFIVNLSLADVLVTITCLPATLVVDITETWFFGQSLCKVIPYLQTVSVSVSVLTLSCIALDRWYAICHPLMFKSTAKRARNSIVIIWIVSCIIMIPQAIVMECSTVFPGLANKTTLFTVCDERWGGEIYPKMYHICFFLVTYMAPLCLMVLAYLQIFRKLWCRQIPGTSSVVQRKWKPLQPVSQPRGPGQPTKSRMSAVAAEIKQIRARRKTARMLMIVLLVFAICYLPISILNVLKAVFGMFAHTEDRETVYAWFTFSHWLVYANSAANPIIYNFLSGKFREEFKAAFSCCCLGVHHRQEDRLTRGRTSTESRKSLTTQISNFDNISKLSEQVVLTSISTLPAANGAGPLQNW
Experimental: as §1

OX2R W120A = target: T4, OX2R W120A (Homo sapiens, UniProt O43614, W120A); assay: β-arrestin PathHunter assay, OX2R W120A; conditions: β-arrestin recruitment
T4 construct: expressed in transfected cells; host or cells: CHO-K1 stably expressing EA β-arrestin2
T4 sequence (O43614 whole entry W120A): as the sequence (O43614 whole entry R328A) above, with W120A, A328R counted along it
Experimental: as §1

human OX1R wild-type = target: T5, human OX1R wild-type (Homo sapiens, UniProt O43613); assay: IP accumulation assay, OX1R WT
T5 construct: FLAG; expressed in transfected cells; host or cells: HEK293
T5 sequence (O43613 1-425): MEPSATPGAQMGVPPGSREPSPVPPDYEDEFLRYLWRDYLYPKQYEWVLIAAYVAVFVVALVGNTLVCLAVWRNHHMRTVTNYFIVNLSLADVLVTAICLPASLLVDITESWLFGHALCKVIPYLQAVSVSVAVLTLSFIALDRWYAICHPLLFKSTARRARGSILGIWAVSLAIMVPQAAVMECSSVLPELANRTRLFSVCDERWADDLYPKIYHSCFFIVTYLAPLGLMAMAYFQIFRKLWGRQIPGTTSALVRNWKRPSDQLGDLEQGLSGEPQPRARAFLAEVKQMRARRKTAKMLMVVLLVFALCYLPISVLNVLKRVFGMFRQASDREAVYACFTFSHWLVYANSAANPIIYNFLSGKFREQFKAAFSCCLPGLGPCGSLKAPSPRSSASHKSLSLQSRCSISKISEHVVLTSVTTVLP
Description: The IP assay was adapted from a prior precedent. HEK293 cells were maintained in DMEM-high glucose (Millipore Sigma) supplemented with 5% fetal bovine serum (Corning) and penicillin-streptomycin (Millipore Sigma). Receptor constructs used were the full-length wild-type (or mutant) human OX1R and OX2R sequences cloned into pCDNA3. To enhance the Emax in the IP assay, a plasmid encoding full-length human Gαq subunit[66] was co-transfected into HEK293 cells with plasmids encoding orexin receptor constructs using Lipofectamine 3000 (Thermo Fisher). 24 h after transfection, the cells were plated on poly-D-lysine coated (Millipore Sigma) tissue culture-treated 96 well white plates with clear bottoms (Perkin Elmer) at 30,000 cells per well in Inositol-free DMEM (MP Biomedicals) supplemented with 5% fetal bovine serum, 4 mM L-glutamine (Millipore Sigma), penicillin-streptomycin, and about 5 uCi (5 ul) per ml myo-[2-3H] inositol (Perkin Elmer). The following day, the media was replaced with agonists that were diluted in HBSS (Millipore Sigma) containing 10 mM lithium chloride (Millipore Sigma) and incubated at 37 °C for 45 min. Then agonists were removed and cells were lysed on ice for 30 min with 10 mM formic acid (Millipore Sigma). 1.25 mg of poly-lysine coated YSI SPA beads (Perkin Elmer) was added to each well. The plates were mixed on an orbital shaker for 30 min. The plates were read on a MicroBeta scintillation counter (Perkin Elmer) the following day. IP accumulation assays on different constructs were performed in n ≥ 3 independent experiments (each done in duplicate), where n is shown in Supplementary Table 2.

T1 sequence (O43614 whole entry F346A): as the sequence (O43614 whole entry R328A) above, with A328R, F346A counted along it

With `COC(=O)N1CCC[C@H](NS(C)(=O)=O)[C@@H]1CO[C@H]1CC[C@@H](c2ccccc2)CC1` [TAK-925, methyl (2R,3S)−3-[(methylsulfonyl)amino]−2-{[(cis−4-phenylcyclohexyl)oxy]methyl}piperidine-1-carboxylate] the EC50 (OX2R F346A) was 0.35 µM, the “β-arrestin recruitment, change on mutation of Tyr317” value (OX2R Y317A) was “large reductions” and the EC50 (OX2R Y317A; pEC50 ± SEM, read-out: pEC50 (converted)) was > 30.2 µM. For the same compound, the EC50 (OX2R Y317A; read-out: EC50) was > 30 µM, the EC50 (OX2R R328A) was 3 µM and the EC50 (OX2R W120A; read-out: EC50) was > 30 µM. For the same compound, the EC50 (OX2R W120A; read-out: pEC50 (converted)) was > 30.2 µM, the activation at 100 µM (human OX1R wild-type; 0.75 h, TAK-925 conc (log, M) -4.00, normalized to S103T/A127T Emax) was 59% and the activation at 33.1 µM (human OX1R wild-type; 0.75 h, TAK-925 conc (log, M) -4.48) was 40.3%. It also gave an activation at 11.2 µM (human OX1R wild-type; 0.75 h, TAK-925 conc (log, M) -4.95) of 23.1%, an activation at 3.72 µM (human OX1R wild-type; 0.75 h, TAK-925 conc (log, M) -5.43) of 13.6% and an activation at 1.23 µM (human OX1R wild-type; 0.75 h, TAK-925 conc (log, M) -5.91) of 8.76%. The activation at 0.0457 µM (human OX1R wild-type; 0.75 h, TAK-925 conc (log, M) -7.34) was 7.24%, the pEC50 (human OX1R wild-type; IP accumulation) was “not saturating” and the EC50 (human OX1R wild-type; IP accumulation, non-saturating) was > 100 µM.
